Results on 10 compounds are retold here after PubChem BioAssay (NCI).

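Compound exposure: 48 hours, 5 concentrations, 96-well plates. The concentration for 50% growth inhibition is given as GI50. TGI: total growth inhibition.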 Some results are limits rather than exact numbers.

Test systems include ACHN renal; DU-145 prostate; KM12 colon; LOX IMVI melanoma; MOLT-4 leukemia; SNB-19 CNS; SR leukemia; TK-10 renal; UACC-257 melanoma; UACC-62 melanoma.
Common to all, as to experiment: NCI tumour cell line growth inhibition, 48 h

`Cn1cc(C2=C(c3cn(CCO)c4ccccc34)C(=O)NC2=O)c2ccccc21`: the GI50 in the assay on ACHN renal is 4 µM; with DU-145 prostate, 6.94 µM; with KM12 colon, 2000 nM; in the assay on LOX IMVI melanoma, 2770 nM; in the assay on MOLT-4 leukemia it was 1360 nM; in the assay on SNB-19 CNS it was 7.09 µM. The GI50 with SR leukemia was 1.02 µM; in the assay on TK-10 renal, 4.58 µM; in the assay on UACC-257 melanoma, 4.75 µM; in the assay with UACC-62 melanoma, 2580 nM. The TGI in the assay with ACHN renal is above 25 µM; with DU-145 prostate, above 23.8 µM; in the assay with KM12 colon, 9.4 µM; in the assay on LOX IMVI melanoma, above 25 µM; in the assay on MOLT-4 leukemia it was 16.8 µM; with SNB-19 CNS it was above 25 µM. The TGI in the assay with SR leukemia is above 23.3 µM; with TK-10 renal, 15.5 µM; with UACC-257 melanoma, 22.6 µM; with UACC-62 melanoma, 7.99 µM.

With `COc1cc2c(cc1OCCCCCOc1cc3c(cc1OC)C(=O)N1CC(F)C[C@H]1C=N3)N=C[C@@H]1CC(F)CN1C2=O` (stereo partly specified), the GI50 in the assay on ACHN renal is below 0.0169 µM; with DU-145 prostate, 0.097 µM; in the assay on KM12 colon, 369 nM; with MOLT-4 leukemia it was below 10 nM; with SNB-19 CNS it was 0.376 µM; with SR leukemia it was below 0.01 µM. Moreover, the GI50 in the assay on TK-10 renal was 1.98 µM; with UACC-257 melanoma, 0.165 µM; with UACC-62 melanoma, 51.1 nM. Besides, the TGI with ACHN renal was 0.167 µM; with DU-145 prostate, 2.67 µM; in the assay on KM12 colon, 1.15 µM; with MOLT-4 leukemia it was 0.0663 µM; in the assay on SNB-19 CNS it was above 100 µM; in the assay with TK-10 renal, 6.32 µM. The TGI came out at 0.444 µM in the assay with UACC-257 melanoma and 0.224 µM in the assay on UACC-62 melanoma.

For `O=[N+]([O-])c1ccccc1N=Nc1c(O)[nH]c2ccc(Br)cc12`, the TGI in the assay with ACHN renal was 22.9 µM; with DU-145 prostate it was 31.5 µM; in the assay with KM12 colon it was 36.5 µM; in the assay on LOX IMVI melanoma, above 61 µM; in the assay on MOLT-4 leukemia, above 78.5 µM; in the assay with SNB-19 CNS, 45.2 µM. The TGI with SR leukemia is above 40.5 µM; with TK-10 renal, 30.8 µM; in the assay with UACC-257 melanoma, above 50.3 µM; with UACC-62 melanoma, 66.8 µM.

With `Clc1ccc(/C=C/c2cc(N3CCOCC3)c3cc(Cl)c(Cl)cc3n2)cc1`, the GI50 in the assay on ACHN renal is above 100 µM; with DU-145 prostate it was above 100 µM; with KM12 colon it was above 51400 nM; with LOX IMVI melanoma, above 100000 nM; in the assay on MOLT-4 leukemia, 428 nM; in the assay on SNB-19 CNS, above 100 µM. Besides, the GI50 in the assay with SR leukemia is 14.9 µM; in the assay on TK-10 renal, above 100 µM; in the assay on UACC-257 melanoma it was above 100 µM; in the assay on UACC-62 melanoma it was above 100000 nM. Further, the TGI in the assay with ACHN renal was above 100 µM; in the assay with DU-145 prostate, above 100 µM; in the assay with KM12 colon, above 100 µM; in the assay with LOX IMVI melanoma it was above 100 µM; in the assay with SNB-19 CNS, above 100 µM; in the assay with SR leukemia, above 61.8 µM. In addition, the TGI with TK-10 renal, in the assay with UACC-257 melanoma and with UACC-62 melanoma was above 100 µM throughout.

As to `CC1=C(/C=C/C(=O)O)C(C)(C)CCC1`, the TGI with ACHN renal, with DU-145 prostate, in the assay with LOX IMVI melanoma, in the assay on SNB-19 CNS, with SR leukemia and in the assay with TK-10 renal was above 100 µM throughout. In addition, the TGI with UACC-257 melanoma and in the assay on UACC-62 melanoma was above 100 µM in each case.

`O=S(=O)(Cc1ccc(Cl)cc1Cl)c1ccc(Cl)cc1`: the GI50 was 1.04 µM in the assay on ACHN renal; 1.74 µM in the assay on DU-145 prostate; 372 nM in the assay with KM12 colon; 587 nM with LOX IMVI melanoma; 1140 nM in the assay on MOLT-4 leukemia; 1.38 µM with SNB-19 CNS. Moreover, the GI50 is 0.296 µM with SR leukemia, 1.01 µM in the assay on TK-10 renal and 502 nM in the assay on UACC-62 melanoma. The TGI in the assay with ACHN renal is above 100 µM; with DU-145 prostate it was 16.1 µM; with KM12 colon, above 100 µM; in the assay with LOX IMVI melanoma, above 100 µM; with MOLT-4 leukemia, above 100 µM; in the assay with SNB-19 CNS, above 100 µM. Further, the TGI with SR leukemia was 11 µM; in the assay on TK-10 renal, above 53.9 µM; in the assay on UACC-62 melanoma, above 100 µM.

Turning to `O=C1c2cccnc2C(=O)C2C3C=CC(C3)C12` (stereo unspecified), the TGI amounted to 20.4 µM in the assay on ACHN renal; 19.8 µM with DU-145 prostate; 32 µM with KM12 colon; 15.7 µM in the assay on LOX IMVI melanoma; 34.3 µM in the assay on SNB-19 CNS; 6.65 µM with SR leukemia. The TGI with TK-10 renal was 31.9 µM; in the assay with UACC-257 melanoma, 26.2 µM; in the assay with UACC-62 melanoma it was 9.94 µM.

As for `N#C/C(=N\Nc1ccc(Cl)cc1)C(=O)Nc1cc(-c2ccccc2)nn1-c1ccccc1`, the GI50 is 2.84 µM in the assay on ACHN renal; 3.9 µM in the assay with DU-145 prostate; 2920 nM in the assay on KM12 colon; 3500 nM in the assay on MOLT-4 leukemia; 3.17 µM in the assay with SNB-19 CNS; 3.59 µM with SR leukemia. The GI50 was 4.82 µM in the assay with TK-10 renal, 2.35 µM in the assay with UACC-257 melanoma and 2030 nM in the assay on UACC-62 melanoma. Moreover, the TGI in the assay with ACHN renal, with DU-145 prostate, in the assay on KM12 colon, in the assay with MOLT-4 leukemia, in the assay with SNB-19 CNS and in the assay on SR leukemia was above 100 µM throughout. The TGI in the assay with TK-10 renal is above 100 µM; with UACC-257 melanoma it was 8.62 µM; with UACC-62 melanoma, above 100 µM.

Take `CCOC(=O)c1sc2ncn(Cc3cccc(Br)c3)c(=O)c2c1C`: the GI50 in the assay on ACHN renal is 84.6 µM; in the assay on DU-145 prostate it was 88.8 µM; with KM12 colon, 28900 nM; in the assay on LOX IMVI melanoma it was 84900 nM; with MOLT-4 leukemia, 25300 nM; in the assay with SNB-19 CNS, above 100 µM. Besides, the GI50 in the assay with SR leukemia was 8.18 µM; in the assay with UACC-257 melanoma, 21.1 µM; in the assay with UACC-62 melanoma it was 19500 nM. Besides, the TGI in the assay with ACHN renal, in the assay with DU-145 prostate, in the assay on KM12 colon, in the assay with LOX IMVI melanoma, with MOLT-4 leukemia and with SNB-19 CNS was above 100 µM throughout. Also, the TGI with SR leukemia came out at 88.7 µM; with UACC-257 melanoma it was 84.4 µM; in the assay on UACC-62 melanoma, 92.3 µM.

As to `CCOC(=O)c1c(-c2ccccc2)oc(-c2ccccc2)c1C(=O)OCC`, the TGI in the assay with ACHN renal, in the assay with KM12 colon, with LOX IMVI melanoma, in the assay with MOLT-4 leukemia, in the assay on SNB-19 CNS and with SR leukemia was above 100 µM each time. Moreover, the TGI with TK-10 renal, with UACC-257 melanoma and in the assay on UACC-62 melanoma was above 100 µM in each case.
